From US20250382297A1, “INHIBITORS OF FGFR2 AND FGFR3 AND USES THEREOF” (Insilico Medicine IP Limited, priority 2022, published 2025)
Read-outs that look alike come from different tables or passages of the source.

What was measured:
FGFR3 = FGFR3 (Homo sapiens (Human), UniProt P22607); test: FGFR biochemical assay (LanthaScreen TR-FRET kinase assay), FGFR3
Protocol: (§1) Convert Ratio values to percent inhibition values (Percent inhibition=(max−sample Ratio)/(max−min)*100) where “min” means the Ratio of no enzyme control and “max” means the Ratio of DMSO control. • Data are analyzed and curve fitting is performed by XLFit Excel add-in version 5.4.0.8. The IC50 calculation equation is: Y=Bottom+(Top-Bottom)/(1+ (IC50/X)^HillSlope.

FGFR1 = FGFR1 (Homo sapiens (Human), UniProt P11362); test: FGFR biochemical assay (LanthaScreen TR-FRET kinase assay), FGFR1
Protocol: as §1

FGFR2 = FGFR2 (Homo sapiens (Human), UniProt P21802); test: FGFR biochemical assay (LanthaScreen TR-FRET kinase assay), FGFR2
FGFR2, sequence (P21802 22-821): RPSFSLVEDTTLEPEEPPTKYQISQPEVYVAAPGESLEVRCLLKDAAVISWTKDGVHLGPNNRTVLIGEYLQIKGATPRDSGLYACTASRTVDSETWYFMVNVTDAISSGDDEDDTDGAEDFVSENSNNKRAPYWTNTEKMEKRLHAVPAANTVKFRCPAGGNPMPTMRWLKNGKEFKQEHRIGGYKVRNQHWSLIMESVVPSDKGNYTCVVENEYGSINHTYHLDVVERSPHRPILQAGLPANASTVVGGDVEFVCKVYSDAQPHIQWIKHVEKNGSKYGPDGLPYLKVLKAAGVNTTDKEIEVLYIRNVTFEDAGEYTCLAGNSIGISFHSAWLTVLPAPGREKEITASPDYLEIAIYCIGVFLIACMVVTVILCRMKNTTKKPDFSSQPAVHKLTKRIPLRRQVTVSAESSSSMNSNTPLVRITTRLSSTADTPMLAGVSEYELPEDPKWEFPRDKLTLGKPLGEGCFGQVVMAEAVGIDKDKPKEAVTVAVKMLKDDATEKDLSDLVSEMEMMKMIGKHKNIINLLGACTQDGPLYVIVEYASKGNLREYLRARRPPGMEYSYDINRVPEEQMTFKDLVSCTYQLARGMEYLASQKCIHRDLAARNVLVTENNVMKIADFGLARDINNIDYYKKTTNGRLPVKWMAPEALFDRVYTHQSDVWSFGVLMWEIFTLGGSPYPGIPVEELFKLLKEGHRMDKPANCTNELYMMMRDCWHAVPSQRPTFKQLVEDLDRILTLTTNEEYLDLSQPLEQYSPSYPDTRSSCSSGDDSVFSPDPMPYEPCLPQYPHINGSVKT
Protocol: as §1

[1] = read-out: FGFR2 IC50, incubation with enzyme at room temperature for 10 minutes before substrate, ATP 22 μM, FGFR2 0.01 nM
[2] = read-out: FGFR3 IC50, incubation with enzyme at room temperature for 10 minutes before substrate, ATP 35 μM, FGFR3 0.1 nM
[3] = read-out: FGFR1 IC50, incubation with enzyme at room temperature for 10 minutes before substrate, ATP 28 μM, FGFR1 0.01 nM
[4] = read-out: FGFR3 IC50, * incubation at room temperature for 60 minutes before addition of substrate solution, ATP 35 μM, FGFR3 0.1 nM
[5] = read-out: FGFR2 IC50, * incubation at room temperature for 60 minutes before addition of substrate solution, ATP 22 μM, FGFR2 0.01 nM
[6] = read-out: FGFR1 IC50, * incubation at room temperature for 60 minutes before addition of substrate solution, ATP 28 μM, FGFR1 0.01 nM

FGFR1, sequence (P11362 22-822): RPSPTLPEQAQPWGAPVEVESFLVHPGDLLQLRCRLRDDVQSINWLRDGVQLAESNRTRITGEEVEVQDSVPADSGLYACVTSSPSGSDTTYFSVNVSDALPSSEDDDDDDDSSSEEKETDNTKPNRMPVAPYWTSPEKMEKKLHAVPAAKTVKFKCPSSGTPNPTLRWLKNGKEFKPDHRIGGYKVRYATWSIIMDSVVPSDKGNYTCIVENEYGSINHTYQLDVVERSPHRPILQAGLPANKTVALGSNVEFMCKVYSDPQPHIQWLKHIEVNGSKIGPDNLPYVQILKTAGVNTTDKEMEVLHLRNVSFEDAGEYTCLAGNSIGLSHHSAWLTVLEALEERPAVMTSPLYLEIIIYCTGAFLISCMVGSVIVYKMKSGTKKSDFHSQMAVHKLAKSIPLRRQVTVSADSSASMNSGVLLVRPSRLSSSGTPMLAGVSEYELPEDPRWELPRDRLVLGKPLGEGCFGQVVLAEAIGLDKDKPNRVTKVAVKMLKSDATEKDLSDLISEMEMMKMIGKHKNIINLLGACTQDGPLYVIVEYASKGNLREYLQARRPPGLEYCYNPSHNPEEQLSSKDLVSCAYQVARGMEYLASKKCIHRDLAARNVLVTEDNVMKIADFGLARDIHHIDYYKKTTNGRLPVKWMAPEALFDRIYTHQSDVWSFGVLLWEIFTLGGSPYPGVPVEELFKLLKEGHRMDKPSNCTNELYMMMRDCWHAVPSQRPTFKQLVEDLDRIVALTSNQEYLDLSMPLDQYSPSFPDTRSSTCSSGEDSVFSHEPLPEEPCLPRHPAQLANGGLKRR
FGFR3, sequence (P22607 23-806): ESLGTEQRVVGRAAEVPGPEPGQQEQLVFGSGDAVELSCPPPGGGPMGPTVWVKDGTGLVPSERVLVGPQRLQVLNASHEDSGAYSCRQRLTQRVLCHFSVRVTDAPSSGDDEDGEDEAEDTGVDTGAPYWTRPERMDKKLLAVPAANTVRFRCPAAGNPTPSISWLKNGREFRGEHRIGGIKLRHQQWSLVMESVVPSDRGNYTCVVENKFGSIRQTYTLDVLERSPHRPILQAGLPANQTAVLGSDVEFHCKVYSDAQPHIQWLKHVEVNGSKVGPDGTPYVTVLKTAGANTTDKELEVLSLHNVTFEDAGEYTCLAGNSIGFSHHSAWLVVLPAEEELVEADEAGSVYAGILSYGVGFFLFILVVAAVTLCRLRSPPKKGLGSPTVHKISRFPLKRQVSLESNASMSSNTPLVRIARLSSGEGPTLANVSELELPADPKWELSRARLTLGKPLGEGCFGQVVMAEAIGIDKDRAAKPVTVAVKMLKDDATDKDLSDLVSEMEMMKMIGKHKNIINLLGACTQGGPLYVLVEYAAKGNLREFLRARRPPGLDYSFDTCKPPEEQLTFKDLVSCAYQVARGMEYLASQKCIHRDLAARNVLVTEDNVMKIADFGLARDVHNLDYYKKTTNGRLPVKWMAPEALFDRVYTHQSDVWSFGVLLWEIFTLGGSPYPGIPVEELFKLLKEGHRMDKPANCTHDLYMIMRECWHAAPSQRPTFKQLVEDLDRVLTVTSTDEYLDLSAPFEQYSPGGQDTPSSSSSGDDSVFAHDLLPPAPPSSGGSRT

Compound	IC50 (FGFR3) [µM]	IC50 (FGFR1) [µM]	IC50 (FGFR2; [1]) [µM]	IC50 (FGFR2) [µM]	further results
Cc1cn2c(-c3ccc(NC(=O)/C=C/CN(C)C)cc3)c(-c3ccc(Oc4cccc(C)n4)cc3)c(C(N)=O)c2cn1 [Example 9, (E)-6-(4-(4-(dimethylamino)but-2-enamido)phenyl)-3-methyl-7-(4-((6-methylpyridin-2-yl)oxy)phenyl)pyrrolo[1,2-a]pyrazine-8-carboxamide]	0.01 to 0.1	0.1 to 1	< 0.01		
C=C(F)C(=O)Nc1ccc(-c2c(-c3ccc(Oc4cc(C)ccn4)cc3)c(C(N)=O)c3cnc(C)cn23)cc1 [Example 52]				0.1 to 1	IC50 (FGFR3; [2]): > 1 µM; IC50 (FGFR1; [3]): > 1 µM
C=CC(=O)Nc1ccc(-c2c(-c3ccc(Oc4cccc(C)n4)cc3)c(C(N)=O)c3ccnc(C)n23)cc1 [Example 84, 7-(4-acrylamidophenyl)-1-methyl-6-(4-((6-methylpyridin-2-yl)oxy)phenyl)pyrrolo[1,2-c]pyrimidine-5-carboxamide]	0.01 to 0.1	0.1 to 1	< 0.01		
C=C(F)C(=O)N1CCc2c1ccc(-c1c(-c3ccc(Oc4nccc(C)n4)c(F)c3)c(C(N)=O)c3cnc(C)cn13)c2F [Example 99, 6-(4-fluoro-1-(2-fluoroacryloyl)indolin-5-yl)-7-(3-fluoro-4-((4-methylpyrimidin-2-yl)oxy)phenyl)-3-methylpyrrolo[1,2-a]pyrazine-8-carboxamide]		0.01 to 0.1			IC50 (FGFR3; [4]): < 0.01 µM; IC50 (FGFR2; [5]): < 0.01 µM
C=CC(=O)Nc1ccc(-c2c(-c3ccc(Oc4nccc(C)n4)c(F)c3)c(C(N)=O)c3cnc(C)cn23)cn1 [Example 36, 6-(6-acrylamidopyridin-3-yl)-7-(3-fluoro-4-((4-methylpyrimidin-2-yl)oxy)phenyl)-3-methylpyrrolo[1,2-a]pyrazine-8-carboxamide]		0.01 to 0.1	< 0.01		IC50 (FGFR3; [2]): < 0.01 µM
C=CC(=O)Nc1ccc(-c2c(-c3ccc(Oc4cccc(C)n4)cc3)c(C(N)=O)c3cnc(C4CN(C)C4)cn23)cc1 [Example 21, 6-(4-acrylamidophenyl)-3-(1-methylazetidin-3-yl)-7-(4-((6-methylpyridin-2-yl)oxy)phenyl)pyrrolo[1,2-a]pyrazine-8-carboxamide]	0.01 to 0.1	0.1 to 1	< 0.01		
C=C(F)C(=O)Nc1ccc(-c2c(-c3ccc(Oc4nccc(C)n4)c(F)c3)c(C(N)=O)c3cc(C4CC4)ncn23)cc1 [Example 105, 3-cyclopropyl-6-(3-fluoro-4-((4-methylpyrimidin-2-yl)oxy)phenyl)-7-(4-(2-fluoroacrylamido)phenyl)pyrrolo[1,2-c]pyrimidine-5-carboxamide]	0.01 to 0.1	0.01 to 0.1			IC50 (FGFR2; [5]): < 0.01 µM
CC#CC(=O)Nc1ccc(-c2c(-c3ccc(C(=O)NCC4(F)COC4)cc3)c(C(N)=O)c3cnc(C)cn23)cc1 [Example 65, 6-(4-(but-2-ynamido)phenyl)-7-(4-(((3-fluorooxetan-3-yl)methyl)carbamoyl)phenyl)-3-methylpyrrolo[1,2-a]pyrazine-8-carboxamide]	0.1 to 1	0.1 to 1		0.01 to 0.1	
C=CC(=O)Nc1ccc(-c2c(-c3ccc(Oc4cccc(C)n4)cc3)c(C(N)=O)c3cnc(C#N)cn23)cc1 [Example 77, 6-(4-acrylamidophenyl)-3-cyano-7-(4-((6-methylpyridin-2-yl)oxy)phenyl)pyrrolo[1,2-a]pyrazine-8-carboxamide]	0.1 to 1			0.01 to 0.1	IC50 (FGFR1; [3]): > 1 µM
C=C(F)C(=O)Nc1ccc(-c2c(-c3cccc(C(=O)NC)c3)c(C(N)=O)c3cnc(C)cn23)c(F)c1 [Example 75, 6-(2-fluoro-4-(2-fluoroacrylamido)phenyl)-3-methyl-7-(3-(methylcarbamoyl)phenyl)pyrrolo[1,2-a]pyrazine-8-carboxamide]	0.1 to 1	0.1 to 1		0.1 to 1	
C=CC(=O)Nc1ccc(-c2c(-c3ccc(OC)cc3)c(C(N)=O)c3cnccn23)cc1 [Example 22, 6-(4-acrylamidophenyl)-7-(4-methoxyphenyl)pyrrolo[1,2-a]pyrazine-8-carboxamide]	0.1 to 1	0.1 to 1		0.01 to 0.1	
Cc1cn2c(-c3ccc(NC(=O)/C=C/CN(C)C)nc3)c(-c3ccc(Oc4cccc(C)n4)cc3)c(C(N)=O)c2cn1 [Example 10, (E)-6-(6-(4-(dimethylamino)but-2-enamido)pyridin-3-yl)-3-methyl-7-(4-((6-methylpyridin-2-yl)oxy)phenyl)pyrrolo[1,2-a]pyrazine-8-carboxamide]	0.01 to 0.1	0.01 to 0.1	< 0.01		
C=C(F)C(=O)Nc1ccc(-c2c(-c3ccc(Oc4nccc(C)n4)cc3)c(C(N)=O)c3cnc(NC(C)=O)cn23)cc1 [Example 83, 3-acetamido-6-(4-(2-fluoroacrylamido)phenyl)-7-(4-((4-methylpyrimidin-2-yl)oxy)phenyl)pyrrolo[1,2-a]pyrazine-8-carboxamide]	0.01 to 0.1	0.1 to 1			IC50 (FGFR2; [5]): < 0.01 µM
C=CC(=O)Nc1ccc(-c2c(-c3ccc(Oc4cccc(C)n4)cc3)c(C(N)=O)c3cnccn23)cn1 [Example 3, 6-(6-acrylamidopyridin-3-yl)-7-(4-((6-methylpyridin-2-yl)oxy)phenyl)pyrrolo[1,2-a]pyrazine-8-carboxamide]			< 0.01		IC50 (FGFR3; [2]): < 0.01 µM; IC50 (FGFR1; [3]): < 0.01 µM
C=C(F)C(=O)N1CC2(CC2)c2cc(-c3c(-c4ccc(Oc5nccc(C)n5)c(F)c4)c(C(N)=O)c4cnc(C)cn34)c(F)cc21 [Example 102, 6-(6′-fluoro-1′-(2-fluoroacryloyl)spiro[cyclopropane-1,3′-indolin]-5′-yl)-7-(3-fluoro-4-((4-methylpyrimidin-2-yl)oxy)phenyl)-3-methylpyrrolo[1,2-a]pyrazine-8-carboxamide]	0.01 to 0.1			0.01 to 0.1	IC50 (FGFR1; [6]): < 0.01 µM
C=CC(=O)Nc1ccc(-c2c(-c3ccc(Oc4nccc(C)n4)c(F)c3)c(C(N)=O)c3cnc(CO)cn23)cc1 [Example 78, 6-(4-acrylamidophenyl)-7-(3-fluoro-4-((4-methylpyrimidin-2-yl)oxy)phenyl)-3-(hydroxymethyl)pyrrolo[1,2-a]pyrazine-8-carboxamide]		0.1 to 1	< 0.01		IC50 (FGFR3; [2]): < 0.01 µM
C=C(F)C(=O)N1CCc2cc(-c3c(-c4ccc(Oc5nccc(C)n5)c(F)c4)c(C(N)=O)c4cnc(C)cn34)c(C)cc21 [Example 97, 7-(3-fluoro-4-((4-methylpyrimidin-2-yl)oxy)phenyl)-6-(1-(2-fluoroacryloyl)-6-methylindolin-5-yl)-3-methylpyrrolo[1,2-a]pyrazine-8-carboxamide]		0.01 to 0.1			IC50 (FGFR3; [4]): < 0.01 µM; IC50 (FGFR2; [5]): < 0.01 µM
C=C(F)C(=O)N1CCc2cc(-c3c(-c4ccc(Oc5nccc(C)n5)c(F)c4)c(C(N)=O)c4cnc(C)cn34)c(F)cc21 [Example 73, 6-(6-fluoro-1-(2-fluoroacryloyl)indolin-5-yl)-7-(3-fluoro-4-((4-methylpyrimidin-2-yl)oxy)phenyl)-3-methylpyrrolo[1,2-a]pyrazine-8-carboxamide]		0.01 to 0.1			IC50 (FGFR3; [4]): < 0.01 µM; IC50 (FGFR2; [5]): < 0.01 µM
C=CC(=O)Nc1ccc(-c2c(-c3ccc(OC4CCCC4)cc3)c(C(N)=O)c3cnccn23)cc1 [Example 28, 6-(4-acrylamidophenyl)-7-(4-(cyclopentyloxy)phenyl)pyrrolo[1,2-a]pyrazine-8-carboxamide]		0.1 to 1	< 0.01		IC50 (FGFR3; [2]): < 0.01 µM
C=CC(=O)Nc1ccc(-c2c(-c3ccc(Oc4nccc(C)n4)cc3)c(C(N)=O)c3cnc(C)cn23)cc1OC [Example 38, 6-(4-acrylamido-3-methoxyphenyl)-3-methyl-7-(4-((4-methylpyrimidin-2-yl)oxy)phenyl)pyrrolo[1,2-a]pyrazine-8-carboxamide]	0.01 to 0.1	0.1 to 1		0.01 to 0.1	
C=CC(=O)Nc1ccc(-c2c(-c3ccc(Oc4cccc(C)n4)cc3)c(C#N)c3sccn23)cc1 [Example 24, N-(4-(7-cyano-6-(4-((6-methylpyridin-2-yl)oxy)phenyl)pyrrolo[2,1-b]thiazol-5-yl)phenyl) acrylamide]			> 1		IC50 (FGFR3; [2]): > 1 µM; IC50 (FGFR1; [3]): > 1 µM
C=C(F)C(=O)N1CCCc2cc(-c3c(-c4ccc(Oc5nccc(C)n5)c(F)c4)c(C(N)=O)c4cnc(C)cn34)c(F)cc21 [Example 98, 6-(7-fluoro-1-(2-fluoroacryloyl)-1,2,3,4-tetrahydroquinolin-6-yl)-7-(3-fluoro-4-((4-methylpyrimidin-2-yl)oxy)phenyl)-3-methylpyrrolo[1,2-a]pyrazine-8-carboxamide]	0.1 to 1			0.1 to 1	IC50 (FGFR1; [6]): > 1 µM
C=C(C)C(=O)Nc1ccc(-c2c(-c3ccc(Oc4nccc(C)n4)c(F)c3)c(C(N)=O)c3cnccn23)cc1 [Example 34, 7-(3-fluoro-4-((4-methylpyrimidin-2-yl)oxy)phenyl)-6-(4-methacrylamidophenyl)pyrrolo[1,2-a]pyrazine-8-carboxamide]	0.1 to 1			0.1 to 1	IC50 (FGFR1; [3]): > 1 µM
C=C(F)C(=O)N1CCc2cc(-c3c(-c4ccc(Oc5nccc(C)n5)c(F)c4)c(C(N)=O)c4ccc(C)nn34)c(C)cc21 [Example 96, 6-(3-fluoro-4-((4-methylpyrimidin-2-yl)oxy)phenyl)-7-(1-(2-fluoroacryloyl)-6-methylindolin-5-yl)-2-methylpyrrolo[1,2-b]pyridazine-5-carboxamide]		0.01 to 0.1			IC50 (FGFR3; [4]): < 0.01 µM; IC50 (FGFR2; [5]): < 0.01 µM
